This is an account of results in US20240197927A1, “COMBINATION COMPRISING A NEUROTENSIN RECEPTOR BINDING COMPOUND, GEMCITABINE AND NAB-PACLITAXEL” (Fusion Pharmaceuticals Inc., priority 2021, published 2024).

Series [1] has as its system metastatic PDAC. The settings on record: patients with metastatic PDAC, first-line; p<0.001; cited from earlier work.
The subject of series [2] is metastatic PDAC. The settings on record: patients with metastatic PDAC; p<0.001; cited from earlier work.
The target in series [3] is neurotensin receptor 2 (NTR2) (Homo sapiens, UniProt O95665). The settings on record: unlike NTR1; cited from earlier work.
Chain of neurotensin receptor 2 (NTR2) (O95665 whole entry, species assumed): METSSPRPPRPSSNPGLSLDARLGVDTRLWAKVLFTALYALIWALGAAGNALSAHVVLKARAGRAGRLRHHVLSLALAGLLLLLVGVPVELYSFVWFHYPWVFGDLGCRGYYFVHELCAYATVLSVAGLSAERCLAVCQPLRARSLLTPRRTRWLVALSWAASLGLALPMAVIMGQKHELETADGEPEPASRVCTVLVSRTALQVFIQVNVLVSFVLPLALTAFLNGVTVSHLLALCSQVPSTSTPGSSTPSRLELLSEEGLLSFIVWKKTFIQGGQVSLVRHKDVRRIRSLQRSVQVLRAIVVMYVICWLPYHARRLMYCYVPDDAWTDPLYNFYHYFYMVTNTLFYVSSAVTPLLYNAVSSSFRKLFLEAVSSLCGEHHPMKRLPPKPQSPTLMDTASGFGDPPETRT
Series [4] deals with subcutaneous HT-29 tumors. Kind of series: Efficacy study on mice bearing subcutaneous HT-29 tumors (tumor volume). The class given is in vivo. As for the experimental part: The HT-29 cell line was established from the primary tumor of a patient with colon adenocarcinoma (Fogh J et al., J. Natl. Cancer Inst. 1977 Jul. 59(1): 221-26).
(§1) Tumor cells were grown as monolayer at 37° C. in a humidified atmosphere (5% CO2, 95% air). The culture medium was RPMI 1640 containing 2 mM L-glutamine supplemented with 10% fetal bovine serum. For experimental use, tumor cells were detached from the culture flask using accutase and neutralized by the addition of complete culture medium. The cells were counted, and viability exceeded 85% as assessed by 0.25% trypan blue exclusion assay. Two frozen pellets of HT29 tumor cells were prepared: one frozen cell pellet prepared during the in-vitro cell culture, and one frozen cell pellet prepared using the cell suspension used for tumor induction in mice.
Healthy female Swiss Nude mice (Crl:NU(Ico)-Foxn1nu), 7 weeks old at reception, were obtained from Charles River.
Tumors were induced by subcutaneous injection of 1×10^7 HT29 cells in 200 μL of RPMI 1640 medium containing matrigel (50:50, v:v, ref: 356237, BD Biosciences, France) into the right flank (in the axis of the heart) of 160 animals. HT29 tumor cell implantation was performed 24 hours after a whole-body irradiation with a gamma source (2 Gy (Nude mice), 60Co, BioMep, France). The day of tumor induction was considered as the day −11 (D-11). […]

Series [5] relates to subcutaneous AsPC1 tumors. Kind of series: Efficacy study on mice bearing subcutaneous AsPC-1 tumors (tumor volume). The series is classed as in vivo. As for the experimental part:
The AsPC 1 cell line was isolated from a metastatic site (ascites) from a patient (Chen W H. et al., In Vitro. 1982 Jan; 18(1):24-34).
as §1, with “mice” for “mice.”
Healthy female Swiss Nude mice (Crl:NU(Ico)-Foxn1^nu), 6 weeks old at reception, were obtained from Charles River.
Tumors were induced by subcutaneous injection of 1×10^7 AsPC 1 cells in 200 μL of RPMI 1640 medium containing matrigel (50:50, v:v, ref: 356237, BD Biosciences, France) into the right flank (in the axis of the heart) of 150 animals. AsPC 1 tumor cell implantation was performed 72 hours after whole-body irradiation with a gamma source (2 Gy (Nude mice), 60Co, BioMep, France).
Animals were randomized by individual tumor volume when tumors reach a mean volume of 150-200 mm3. […]

The nature of series [6]: Toxicity: weight loss of treated mice. The series is classed as in vivo. The settings on record: AsPC-1 study mice; combination Groups 2E, 5E, 6E; Gemcitabine/Abraxane Group 3E; ^177Lu-IPN01087 Groups 4E, 7E. The protocol:
^177Lu-IPN01087 and the reference substances were administered by intravenous injection (IV) into the caudal vein via a catheter. The recommended pH formulation for IV administration is pH 4.5-8.0. […]

The mark [7] stands for this setting: in combination with gemcitabine and nab-paclitaxel chemotherapy regimen.

As for `Nc1ccn([C@@H]2O[C@H](CO)[C@@H](O)C2(F)F)c(=O)n1` [gemcitabine], in the series with metastatic PDAC [1], the “overall response rate (ORR)” value is given as 7%, the “overall survival (OS)” value is 6.7 months and the “progression-free survival (PFS)” value is 3.7 months. Besides, in the series on metastatic PDAC [2], the ORR is recorded as 9.4%, the “median OS” value is on record as 6.8 months and the “median PFS” value is reported as 3.3 months.
For the compound `C[C@@H]1CN([C@H]2CC[C@](C#N)(c3ccc(F)cc3)CC2)CC[C@]1(C(=O)O)c1ccccc1` [levocabastine], the “affinity for NTR2” value in series [3] was “high affinity”.
As for FOLFIRINOX, in the series on metastatic PDAC [2], the ORR is 31.6%, the “median OS” value is given as 11.1 months and the “median PFS” value is reported as 6.4 months.
On to “^177Lu-zalsenertant tetraxetan [^177Lu-IPN01087]”, for which the “overall effect in the HT-29 colon cancer model compared to chemotherapy or radiotherapy regimens alone” value in series [4] (setting [7]) was “improved tumor growth control”. Further, the “HT-29 tumor growth, effect as compared to the vehicles” value in series [4] (single treatments, FIG. 2: Group 3 (GEM-ABX), Group 4 (^177Lu-IPN01087 @17MBq), IV) is listed as “inhibitory effect on tumor growth”. In series [5] (setting [7]), the “overall effect in the AsPC-1 pancreatic cancer model compared to chemotherapy or radiotherapy regimens alone” value is “prolonged regression”. In addition, the “AsPC-1 tumor growth, effect compared to the vehicles” value in series [5] (treatment alone, FIG. 7: Group 3E (GEM-ABX), Group 4E (^177Lu-IPN01087 @19MBq), IV) is on record as “antitumor effect”. The mean weight losses in series [6] was −4% to −10%.
